The values below come from US10328054B2, “Substituted pyrrolidines as mGluR5 antagonists” (Hua Medicine (Shanghai) Ltd., priority 2015, dated 2019).

For the test, the target named is recombinant rat mGluR5 (Rattus norvegicus (Rat), UniProt P31424). Description: Functional calcium flux assay (FLIPR). It counts as cell-based. The following applies: HEK293 cells stably expressing recombinant rat mGluR5; inhibition of glutamate-evoked [Ca2+]i increase, 15 min incubation of test compound. As to the method: For functional assays, HEK293 cells stably expressing recombinant rat mGluR5 were seeded in 384-well plates and dye loaded using Fluo-8. Cells were then washed to remove the un-incorporated dye. Antagonist evaluation was performed following a 15 min incubation of the test compound followed by the addition of submaximal concentration of glutamate. Intracellular calcium ([Ca^2+]i) measurements were performed using a fluorometric imaging plate reader (FLIPR, Molecular Devices). The glutamate-evoked increase in [Ca^2+]i in the presence of the test compounds was compared to the response to glutamate alone (the positive control). Antagonist inhibition curves were fitted with a 4-parameter logistic equation giving IC50 values, and Hill coefficients using an iterative nonlinear curve fitting algorithm.
The tables below provide IC50 data in this assay. In the activity column, A=IC50>1,000 and <5,000 nM; B=IC50>500 and <1,000 nM and C=IC50<500 nM.

Chain of recombinant rat mGluR5 (P31424 21-1203): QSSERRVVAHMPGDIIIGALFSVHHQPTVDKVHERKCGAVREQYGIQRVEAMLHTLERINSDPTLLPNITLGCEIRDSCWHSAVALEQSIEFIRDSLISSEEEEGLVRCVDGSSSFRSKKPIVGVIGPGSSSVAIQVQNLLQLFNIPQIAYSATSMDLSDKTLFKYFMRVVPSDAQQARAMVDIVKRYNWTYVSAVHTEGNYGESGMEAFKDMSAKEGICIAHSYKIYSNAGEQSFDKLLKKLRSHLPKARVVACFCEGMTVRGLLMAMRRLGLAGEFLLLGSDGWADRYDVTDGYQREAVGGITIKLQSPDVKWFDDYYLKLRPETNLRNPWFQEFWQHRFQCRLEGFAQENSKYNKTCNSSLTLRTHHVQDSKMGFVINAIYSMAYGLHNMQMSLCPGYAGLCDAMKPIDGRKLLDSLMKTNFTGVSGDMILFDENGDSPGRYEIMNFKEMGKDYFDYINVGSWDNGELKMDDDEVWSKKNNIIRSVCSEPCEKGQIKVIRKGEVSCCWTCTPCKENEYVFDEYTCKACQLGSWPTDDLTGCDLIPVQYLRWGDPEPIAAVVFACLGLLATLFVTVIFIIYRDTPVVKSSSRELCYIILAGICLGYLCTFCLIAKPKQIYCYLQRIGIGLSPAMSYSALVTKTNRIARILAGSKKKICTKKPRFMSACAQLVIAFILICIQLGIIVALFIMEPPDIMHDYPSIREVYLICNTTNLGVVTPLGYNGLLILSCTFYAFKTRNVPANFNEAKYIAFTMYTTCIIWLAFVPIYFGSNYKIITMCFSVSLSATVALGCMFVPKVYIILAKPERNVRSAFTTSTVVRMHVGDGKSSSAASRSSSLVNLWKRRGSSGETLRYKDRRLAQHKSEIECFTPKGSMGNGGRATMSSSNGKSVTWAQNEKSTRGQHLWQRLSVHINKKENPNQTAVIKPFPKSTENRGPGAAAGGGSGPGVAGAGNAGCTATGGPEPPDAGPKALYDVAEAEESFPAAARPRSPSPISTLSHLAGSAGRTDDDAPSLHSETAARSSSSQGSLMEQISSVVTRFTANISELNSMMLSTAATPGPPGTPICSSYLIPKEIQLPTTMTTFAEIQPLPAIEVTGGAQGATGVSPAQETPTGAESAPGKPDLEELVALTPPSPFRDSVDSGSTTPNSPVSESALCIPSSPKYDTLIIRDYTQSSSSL

As for `O=C(c1cccc(F)c1)N1CC2CC2(C#Cc2ccccn2)C1` (centres unmarked) [Example Compound 41, (3-fluorophenyl)-(1-(pyridin-2-ylethynyl)-3-azabicyclo[3.1.0]hexan-3-yl)methanone], the half-inhibitory concentration (IC50) was under 500 nM. As to `O=S(=O)(c1ccccc1F)N1CC2CC2(C#Cc2ccccn2)C1` (centres unmarked) [Example Compound 42, 3-((2-fluorophenyl)sulfonyl)-1-(pyridin-2-ylethynyl)-3-azabicyclo[3.1.0]hexane], the IC50 was under 500 nM. With `Cc1cccc(C#CC23CC2CN(c2cncc(F)c2)C3)n1` (centres unmarked) [Example Compound 43, 3-(5-fluoropyridin-3-yl)-1-((6-methylpyridin-2-yl)ethynyl)-3-azabicyclo[3.1.0]hexane] the figure was under 500 nM; with `Cc1cccc(C#CC23CC2CN(C(=O)c2cccc(F)c2)C3)n1` (centres unmarked) [Example Compound 44, (3-fluorophenyl)-(1-((6-methylpyridin-2-yl)ethynyl)-3-azabicyclo[3.1.0]hexan-3-yl)methanone], under 500 nM. Regarding `Fc1cc(F)cc(N2CC3CC3(C#Cc3ncccn3)C2)c1` (centres unmarked) [Example Compound 45, 3-(3,5-difluorophenyl)-1-(pyrimidin-2-ylethynyl)-3-azabicyclo[3.1.0]hexane], the half-inhibitory concentration (IC50) was under 500 nM. With `Fc1cccc(N2CC3CC3(C#Cc3ncccn3)C2)c1` (centres unmarked) [Example Compound 46, 3-(3-fluorophenyl)-1-(pyrimidin-2-ylethynyl)-3-azabicyclo[3.1.0]hexane] the figure was under 500 nM; with `Cc1nc(C#CC23CC2CN(c2cccc(C#N)c2)C3)cs1` (centres unmarked) [Example Compound 47, 3-(1-((2-methylthiazol-4-yl)ethynyl)-3-azabicyclo[3.1.0]hexan-3-yl)benzonitrile], under 500 nM; with `Cc1nc(C#CC23CC2CN(c2cncc(F)c2)C3)cs1` (centres unmarked) [Example Compound 48, 4-((3-(S-fluoropyridin-3-yl)-3-azabicyclo[3.1.0]hexan-1-yl)ethynyl)-2-methylthiazole], under 500 nM. `Cc1nc(C#CC23CC2CN(C(=O)c2cccc(Cl)c2)C3)cs1` (centres unmarked) [Example Compound 49, (3-chlorophenyl)-(1-((2-methylthiazol-4-yl)ethynyl)-3-azabicyclo[3.1.0]hexan-3-yl)methanone]: the concentration for half-maximal inhibition (IC50) is under 500 nM. In the case of `N#Cc1cncc(N2CC3CC3(C#Cc3ccccn3)C2)c1` (stereo not drawn) [Example Compound 50, S-(1-(pyridin-2-ylethynyl)-3-azabicyclo[3.1.0]hexan-3-yl)nicotinonitrile], the IC50 was under 500 nM. Take `O=C(C1CCCC1)N1C[C@H]2C[C@@]2(C#Cc2ccccn2)C1` [Example Compound 51, cyclopentyl((1R,5S)-1-(pyridin-2-ylethynyl)-3-azabicyclo[3.1.0]hexan-3-yl)methanone]: the IC50 is under 500 nM. Under `CC(C)(C)C(=O)N1C[C@H]2C[C@@]2(C#Cc2ccccn2)C1` [Example Compound 52, 2,2-dimethyl-1-((1R,5S)-1-(pyridin-2-ylethynyl)-3-azabicyclo[3.1.0]hexan-3-yl)propan-1-one] stands under 500 nM; under `COC(=O)N1CC2CC2(C#Cc2ccccn2)C1` (centres unmarked) [Example Compound 53, methyl 1-(pyridin-2-ylethynyl)-3-azabicyclo[3.1.0]hexane-3-carboxylate], under 500 nM; under `O=C(c1cncc(Cl)c1)N1C[C@H]2C[C@@]2(C#Cc2ccccn2)C1` [Example Compound 54, (5-chloropyridin-3-yl)((1R,5S)-1-(pyridin-2-ylethynyl)-3-azabicyclo[3.1.0]hexan-3-yl)methanone], under 500 nM.

Turning to `O=C(c1cc(Cl)ccn1)N1CC2CC2(C#Cc2ccccn2)C1` (centres unmarked) [Example Compound 55, (4-chloropyridin-2-yl)-(1-(pyridin-2-ylethynyl)-3-azabicyclo[3.1.0]hexan-3-yl)methanone], the IC50 was under 500 nM. With `O=C(c1ccc(Cl)nc1)N1CC2CC2(C#Cc2ccccn2)C1` (centres unmarked) [Example Compound 56, (6-chloropyridin-3-yl)-(1-(pyridin-2-ylethynyl)-3-azabicyclo[3.1.0]hexan-3-yl)methanone] the figure was under 500 nM.

For `O=C(Nc1ccccc1)N1CC2CC2(C#Cc2ccccn2)C1` (centres unmarked) [Example Compound 57, N-phenyl-1-(pyridin-2-ylethynyl)-3-azabicyclo[3.1.0]hexane-3-carboxamide], the half-maximal inhibitory concentration (IC50) is 500 to 1000 nM. Under `CCCNC(=O)N1C[C@H]2C[C@@]2(C#Cc2ccccn2)C1` [Example Compound 58, (1R,5S)—N-propyl-1-(pyridin-2-ylethynyl)-3-azabicyclo[3.1.0]hexane-3-carboxamide] stands under 500 nM.

Take `O=C(N1CCCC1)N1CC2CC2(C#Cc2ccccn2)C1` (centres unmarked) [Example Compound 59, (1-(pyridin-2-ylethynyl)-3-azabicyclo[3.1.0]hexan-3-yl)(pyrrolidin-1-yl)methanone]: the 50% inhibitory concentration (IC50) was under 500 nM. As to `O=C(NCC(F)(F)F)N1CC2CC2(C#Cc2ccccn2)C1` (centres unmarked) [Example Compound 60, 1-(pyridin-2-yl-ethynyl)-N-(2,2,2-trifluoroethyl)-3-azabicyclo[3.1.0]hexane-3-carboxamide], the concentration for half-maximal inhibition (IC50) is under 500 nM. Under `O=C(c1cccc(Cl)c1)N1CC2CC2(C#Cc2ncccn2)C1` (centres unmarked) [Example Compound 61, (3-chlorophenyl)-(1-(pyrimidin-2-ylethynyl)-3-azabicyclo[3.1.0]hexan-3-yl)methanone] stands 500 to 1000 nM; under `N#Cc1cccc(N2CC3CC3(C#Cc3ncccn3)C2)c1` (centres unmarked) [Example Compound 62, 3-(1-(pyrimidin-2-ylethynyl)-3-azabicyclo[3.1.0]hexan-3-yl)benzonitrile], under 500 nM. Turning to `Fc1cncc(N2CC3CC3(C#Cc3ncccn3)C2)c1` (centres unmarked) [Example Compound 63, 3-(5-fluoropyridin-3-yl)-1-(pyrimidin-2-ylethynyl)-3-azabicyclo[3.1.0]hexane], the half-maximal inhibitory concentration (IC50) is under 500 nM. With `Cc1cccc(C#CC23CC2CN(C(=O)C(C)C)C3)n1` (centres unmarked) [Example Compound 64, 2-methyl-1-(1-((6-methylpyridin-2-yl)ethynyl)-3-azabicyclo[3.1.0]hexan-3-yl)propan-1-one] the figure was under 500 nM. With `CC(C)C(=O)N1CC2CC2(C#Cc2cccc(Cl)n2)C1` (centres unmarked) [Example Compound 65, 1-(1-((6-chloropyridin-2-yl)ethynyl)-3-azabicyclo[3.1.0]hexan-3-yl)-2-methylpropan-1-one] the figure was under 500 nM. As to `Cc1nc(C#CC23CC2CN(C(=O)c2ccccc2)C3)cs1` (centres unmarked) [Example Compound 66, (1-((2-methylthiazol-4-yl)ethynyl)-3-azabicyclo[3.1.0]hexan-3-yl)(phenyl)methanone], the IC50 is under 500 nM. Under `CCCCC(=O)N1CC2CC2(C#Cc2csc(C)n2)C1` (centres unmarked) [Example Compound 67, 1-(1-((2-mehylthyiazol-4-yl)ethynyl)-3-azabicyclo[3.1.0]hexan-3-yl)pentan-1-one] stands under 500 nM; under `Cc1nc(C#CC23CC2CN(C(=O)C(C)C)C3)cs1` (centres unmarked) [Example Compound 68, 2-methyl-1-(1-((2-methylthiazol-4-yl)ethynyl)-3-azabicyclo[3.1.0]hexan-3-yl)propan-1-one], under 500 nM; under `Cc1nc(C#CC23CC2CN(C(=O)C(C)(C)C)C3)cs1` (centres unmarked) [Example Compound 69, 2,2-dimethyl-1-(1-((2-methylthiazol-4-yl)ethynyl)-3-azabicyclo[3.1.0]hexan-3-yl)propan-1-one], under 500 nM.

Broadly, the IC50 is the concentration that gives 50% inhibition.
